According to patent US11414450B1, “Aminoglycosides and uses thereof” (REVAGENIX, INC., priority 2017, dated 2022):
In brackets after ≈: the same amount, converted by molar mass.

Experiments:
Format in all cases: cell-based
[1] = system: E. coli isogenic strain aph(3′)-Ia; assay: MIC broth microdilution, E. coli isogenic strain aph(3′)-Ia; conditions: for Geometric Mean MIC values, E. coli isogenic strains, aph(3′)-Ia: Table 2, aph(3′)-Ia has activity at both the 3′-hydroxy and 5″-hydroxy positions
Procedure: (§1) Minimum inhibitory concentrations for the example compounds herein are determined by the broth microdilution method in accordance with the Clinical and Laboratory Standards Institute (CLSI) guidelines. In brief, organism suspensions are adjusted to a 0.5 McFarland standard to yield a final inoculum between 3×10^5 and 7×10^5 colony-forming units (CFU)/mL. Compound dilutions and inocula are made in sterile, cation adjusted Mueller-Hinton Broth (Beckton Dickinson). The inoculum is prepared by suspension of a colony from an agar plate that is prepared the previous day. Bacteria are suspended in sterile saline and added to each assay plate to obtain a final concentration of 5×10^5 CFU/mL. An inoculum volume of 100 μL is added to wells containing 100 μL of broth with 2-fold serial dilutions of the compound. All inoculated microdilution trays are incubated in ambient air at 35° C. for 18-24 hours. Following incubation, the lowest concentration of the compound that prevents visible growth (OD 600 nm<0.05) is recorded as the MIC. […] Performance of the assay is monitored by the use of laboratory quality-control strains and a compound with a defined MIC spectrum (such as levofloxacin), in accordance with CLSI guidelines. Compounds are tested against multiple microbiologic panels. Panels include: 1) a multi-species primary screening panel that includes multiple defined AG-R mechanisms; 2) a panel of isogenic strains carrying different common mechanisms of AG-R that allows characterization of the SAR for AMEs, RMTs, and entry and efflux resistance mechanisms; and 3) panels of recent clinical isolates selected from Phase 3 studies and ongoing global surveillance.

[2] = system: E. coli isogenic strain nmpA; assay: MIC broth microdilution, E. coli isogenic strain nmpA; conditions: for Geometric Mean MIC values, E. coli isogenic strains, nmpA: Table 2
Procedure: as §1

E. coli ATCC 25922 = assay: Minimum inhibitory concentration (broth microdilution, CLSI), E. coli ATCC 25922; conditions: for Geometric Mean MIC values, E. coli ATCC 25922: Table 2
Procedure: as §1

[3] = system: E. coli isogenic strain aac(6′)-Ib; assay: MIC broth microdilution, E. coli isogenic strain aac(6′)-Ib; conditions: for Geometric Mean MIC values, E. coli isogenic strains, aac(6′)-Ib: Table 2
Procedure: as §1

[4] = system: E. coli isogenic strain ant(4′)-Ia; assay: MIC broth microdilution, E. coli isogenic strain ant(4′)-Ia; conditions: for Geometric Mean MIC values, E. coli isogenic strains, ant(4′)-Ia: Table 2
Procedure: as §1

[5] = system: E. coli isogenic strain empty vector; assay: MIC broth microdilution, E. coli isogenic strain, empty vector; conditions: for Geometric Mean MIC values, E. coli isogenic strains, empty vector: Table 2
Procedure: as §1

[6] = system: E. coli isogenic strain aph(3′)-II; assay: MIC broth microdilution, E. coli isogenic strain aph(3′)-II; conditions: for Geometric Mean MIC values, E. coli isogenic strains, aph(3′)-II: Table 2
Procedure: as §1

[7] = system: E. coli Δefflux (tolC efflux pump knocked-out); assay: MIC broth microdilution, E. coli Δefflux strain (tolC knocked out)
Procedure: as §1

E. coli efflux parent = assay: MIC broth microdilution, E. coli efflux parent strain; conditions: for Geometric Mean MIC values, E. coli efflux parent: Table 2
Procedure: as §1

[8] = system: E. coli isogenic strain armA; assay: MIC broth microdilution, E. coli isogenic strain armA; conditions: for Geometric Mean MIC values, E. coli isogenic strains, armA: Table 2
Procedure: as §1

SMILES | Geometric Mean MIC values, E. coli isogenic strains, aph(3′)-Ia [1] | Geometric Mean MIC values, E. coli isogenic strains, nmpA [2] | Geometric Mean MIC values, E. coli ATCC 25922 (E. coli ATCC 25922) | Geometric Mean MIC values, E. coli isogenic strains, aac(6′)-Ib [3] | Geometric Mean MIC values, E. coli isogenic strains, ant(4′)-Ia [4] | Geometric Mean MIC values, E. coli isogenic strains, empty vector [5] | Geometric Mean MIC values, E. coli isogenic strains, aph(3′)-II [6] | Geometric Mean MIC values, E. coli Δefflux ([7]; Table 2) | Geometric Mean MIC values, E. coli efflux parent (E. coli efflux parent) | Geometric Mean MIC values, E. coli isogenic strains, armA [8] | MIC ([1]; Escherichia coli, read-out: Geometric Mean MIC values, E. coli isogenic strains aph(3′)-Ia) | MIC ([2]; Escherichia coli, read-out: Geometric Mean MIC values, E. coli isogenic strains npmA) | MIC (E. coli ATCC 25922; Escherichia coli, ATCC25922, E. coli ATCC 25922, broth microdilution, read-out: Geometric Mean MIC values, E. coli ATCC 25922) | MIC ([3]; Escherichia coli, read-out: Geometric Mean MIC values, E. coli isogenic strains aac(6′)-Ib) | MIC ([4]; Escherichia coli, read-out: Geometric Mean MIC values, E. coli isogenic strains ant(4′)-Ia) | MIC ([5]; Escherichia coli, read-out: Geometric Mean MIC values, E. coli isogenic strains empty vector) | MIC ([6]; Escherichia coli, read-out: Geometric Mean MIC values, E. coli isogenic strains aph(3′)-II) | Geometric Mean MIC values, E. coli Δefflux ([7]; E. coli Δefflux) | MIC (E. coli efflux parent; Escherichia coli, E. coli efflux parent strain, read-out: Geometric Mean MIC values, E. coli efflux parent) | MIC ([8]; Escherichia coli, read-out: Geometric Mean MIC values, E. coli isogenic strains armA)
CC(N)C1CCC(N)C(OC2C(N)CC(N)C(O)C2OC2OC(CO)C(OC3OC(CN)C(O)C(O)C3N)C2O)O1 (stereo not drawn) [drawing 858] | >64 µg/mL | >64 µg/mL | 2 µg/mL | 1 µg/mL | 0.5 µg/mL | 1 µg/mL | 1 µg/mL | 1 µg/mL | 1 µg/mL | 1.4 µg/mL |  |  |  |  |  |  |  |  |  | 
NCC1OC(OC2C(CO)OC(OC3C(O)C(N)CC(N)C3OC3OC(CN)C(O)C(F)C3N)C2O)C(N)C(O)C1O (stereo not drawn) [drawing 869] | >64 µg/mL | >64 µg/mL | 1 µg/mL | 4 µg/mL | 1 µg/mL | 1 µg/mL | 1 µg/mL | 1 µg/mL | 1 µg/mL | 4 µg/mL |  |  |  |  |  |  |  |  |  | 
NC[C@@H]1O[C@H](O[C@H]2[C@@H](O)[C@H](O[C@@H]3[C@@H](O)[C@H](N)C[C@H](N)[C@H]3O[C@H]3O[C@H](CN)[C@@H](O)[C@H](O)[C@H]3N)O[C@@H]2CO)[C@H](N)[C@@H](O)[C@@H]1O [NEO, neomycin B, reference compound] | >64 µg/mL | 80 µg/mL | 1 µg/mL | 1.6 µg/mL | 2.2 µg/mL | 0.64 µg/mL | 18 µg/mL | 0.79 µg/mL | 0.76 µg/mL | 0.75 µg/mL |  |  |  |  |  |  |  |  |  | 
CCC(N)C1CCC(N)C(OC2C(N)CC(N)C(O)C2OC2OC(CO)C(OC3OC(CN)C(O)C(O)C3N)C2O)O1 (stereo not drawn) [drawing 860] | >64 µg/mL | >64 µg/mL | 2 µg/mL | 1.3 µg/mL | 1 µg/mL | 1 µg/mL | 1 µg/mL | 0.71 µg/mL | 1.4 µg/mL | 3.2 µg/mL |  |  |  |  |  |  |  |  |  | 
NCC1OC(OC2C(CO)OC(OC3C(O)C(N)CC(N)C3OC3OC(CN)C(O)C(F)C3O)C2O)C(N)C(O)C1O (stereo not drawn) [drawing 867] | 64 µg/mL | >64 µg/mL | 2 µg/mL | >64 µg/mL | 64 µg/mL | 2 µg/mL | 1.4 µg/mL | 1 µg/mL | 1.4 µg/mL | 2.8 µg/mL |  |  |  |  |  |  |  |  |  | 
NCC1OC(OC2C(N)CC(N)C(O)C2OC2OC(CO)C(OC3OC(CN)C(O)C(O)C3N)C2O)C(N)CC1O (stereo not drawn) [drawing 864, reference compound] | 38 µg/mL | >64 µg/mL | 0.71 µg/mL | 2 µg/mL | 2 µg/mL | 0.32 µg/mL | 0.25 µg/mL | 0.25 µg/mL | 0.63 µg/mL | 0.6 µg/mL |  |  |  |  |  |  |  |  |  | 
NCC1OC(OC2C(CO)OC(OC3C(O)C(N)CC(N)C3OC3OC(CN)C(O)C(F)C3N)C2O)C(N)C(O)C1O (stereo not drawn) [drawing 868] | >64 µg/mL | >64 µg/mL | 16 µg/mL | >64 µg/mL | 32 µg/mL | 16 µg/mL | 8 µg/mL | 4 µg/mL | 8 µg/mL | 64 µg/mL |  |  |  |  |  |  |  |  |  | 
NCC1CCC(N)C(OC2C(N)CC(N)C(O)C2OC2OC(CO)C(OC3OC(CN)C(O)C(O)C3N)C2O)O1 (stereo not drawn) [drawing 856, reference compound] | 64 µg/mL | >64 µg/mL | 1.1 µg/mL | 5.7 µg/mL | 0.5 µg/mL | 0.61 µg/mL | 0.35 µg/mL | 0.87 µg/mL | 0.87 µg/mL | 0.74 µg/mL |  |  |  |  |  |  |  |  |  | 
NC[C@@H]1CC[C@@H](N)[C@@H](O[C@@H]2[C@@H](N)[C@H](O)[C@@H](N)[C@H](O)[C@H]2O[C@@H]2O[C@H](CO)[C@@H](O[C@H]3O[C@@H](CN)[C@@H](O)[C@H](O)[C@H]3N)[C@H]2O)O1 [drawing 888] |  |  |  |  |  |  |  |  |  |  | > 64 µg/mL | > 64 µg/mL | 1 µg/mL (≈ 1.67 µM) | 16 µg/mL (≈ 26.7 µM) | 0.5 µg/mL (≈ 0.835 µM) | 0.5 µg/mL (≈ 0.835 µM) | 0.5 µg/mL (≈ 0.835 µM) | 0.5 µg/mL | 0.5 µg/mL (≈ 0.835 µM) | 4 µg/mL (≈ 6.68 µM)
